Legend:
[1] = Imaging (PET/CT) and biodistribution study of 124I-MIBG prepared using two methods; format: in vivo; settings: male Sprague-Dawley rats, single intravenous dose, PET/CT scans at 1, 4, and 24 hours post injection; diaryliodonium salt precursor preparation vs conventional method (stannylated resin precursor)
Description: To determine whether the method of preparation of MIBG affected the biodistribution of the compound, high specific activity ^124I-MIBG was prepared using the diaryliodonium salt method (Example 27) and the conventional stannylated resin precursor; these compounds were imaged in rodent models.
Eight male Sprague-Dawley rats were used for the study. Upon arrival at the laboratory, each animal was inspected, uniquely identified with the animal number written on their tails, and weighed. The animals were judged to be in good health and were immediately placed in acclimation. Animals were between 6-14 weeks of age and weighed 440.5±36.4 g.
After a single intravenous dose of ^124I-MIBG prepared by diaryliodonium salt precursor, or ^124I-MIBG prepared with conventional method, Sprague-Dawley rats were given PET/CT scans at 1, 4, and 24 hours post injection of radiotracer. Biodistribution analysis was performed to quantify the amount of uptake in each animal's heart, liver, kidneys, thyroid, quadriceps muscle, and whole body as a function of time. Data is presented in units of μCi, μCi/mm3, % ID, and % ID/g. The radiochemical purity of all compounds as assessed by HPLC was >97% within an hour of administration.

[2] = Thermal stability to iodine loss during the deprotection reaction; format: physicochemical; settings: during the deprotection reaction (6M HCl, 100° C., 10 minutes), compared to MIBG
Description: The residue in the reactor vial was dissolved in 200 μl of 6M HCl, and heated at 100° C. for 10 minutes. The solution was allowed to cool for one minute and neutralized with 120 μl of 10M NaOH. A reverse phase (C18) sep pak was rinsed with ethanol (10 mL) and water (10 mL) and blown dry. The neutralized solution ([…]) was passed through the sep pak and the sep pak was rinsed with 2 mL of water (to elute any remaining salts) and blown dry. Ethanol (0.8 mL) was passed through the sep pak to elute the radiolabeled benzylguanidine derivative. Ethanol was removed using a stream of nitrogen before the material was purified by HPLC.
124I-2,4-difluoro-3-iodobenzylguanidine was prepared in 80±6% radiochemical yield (n=4) at the 1-2 mCi scale using the procedure outlined in Example 26. Following isolation, the product was >99% chemically and radiochemically pure, as assayed by HPLC.

Structure (SMILES) | biodistribution (uptake in heart, liver, kidneys, thyroid, quadriceps muscle, and whole body as a function of time) [1] | thermal stability to iodine loss [2]
NC(N)=NCc1cccc([124I])c1 [^124I-MIBG] | no noted qualitative or quantitative difference | –
N=C(N)NCc1ccc(F)c([124I])c1F [124I-2,4-difluoro-3-iodobenzylguanidine, ^124I-2,4-difluoro-3-iodobenzylguanidine] | – | greater thermal stability to iodine loss
